Values of other authors in article PMC5891061, “Electrophysiological mechanisms of vandetanib-induced cardiotoxicity: Comparison of action potentials in rabbit Purkinje fibers and pluripotent stem cell-derived cardiomyocytes” (PLoS ONE, 2018).

Columns and labels:
[1] = tested on: hiPSC-CMs; details: cited from earlier work
[2] = molecular target: INa in hiPSC-CMs (Homo sapiens, UniProt Q14524); details: hiPSC-CMs compared with HEK293 cells; cited from earlier work
Chain of INa in hiPSC-CMs (Q14524 212-1075 limits assumed): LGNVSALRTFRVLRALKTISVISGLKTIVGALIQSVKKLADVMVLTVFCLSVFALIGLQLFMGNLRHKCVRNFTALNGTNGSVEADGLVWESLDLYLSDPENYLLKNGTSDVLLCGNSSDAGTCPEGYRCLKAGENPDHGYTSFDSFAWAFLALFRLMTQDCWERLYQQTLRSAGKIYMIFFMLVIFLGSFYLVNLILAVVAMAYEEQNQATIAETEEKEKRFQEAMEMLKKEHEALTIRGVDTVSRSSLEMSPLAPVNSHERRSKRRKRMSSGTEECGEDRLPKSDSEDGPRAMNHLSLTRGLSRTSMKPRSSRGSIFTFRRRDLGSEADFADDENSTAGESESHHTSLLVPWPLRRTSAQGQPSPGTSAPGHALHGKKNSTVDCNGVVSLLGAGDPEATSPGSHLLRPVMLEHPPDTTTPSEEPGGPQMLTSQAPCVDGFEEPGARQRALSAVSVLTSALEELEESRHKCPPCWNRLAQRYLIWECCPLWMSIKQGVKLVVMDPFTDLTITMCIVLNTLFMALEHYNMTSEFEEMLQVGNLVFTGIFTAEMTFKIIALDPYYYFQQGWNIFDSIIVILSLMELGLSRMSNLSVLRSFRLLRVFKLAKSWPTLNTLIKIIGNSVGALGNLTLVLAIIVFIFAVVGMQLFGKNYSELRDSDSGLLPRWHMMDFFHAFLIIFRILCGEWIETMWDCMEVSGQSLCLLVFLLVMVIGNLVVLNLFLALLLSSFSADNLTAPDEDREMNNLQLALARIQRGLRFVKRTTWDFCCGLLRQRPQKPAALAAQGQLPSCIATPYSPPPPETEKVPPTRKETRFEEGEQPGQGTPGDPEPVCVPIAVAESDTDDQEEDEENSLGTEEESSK
Chain of INa in hiPSC-CMs (Q14524 1131-2016 limits assumed): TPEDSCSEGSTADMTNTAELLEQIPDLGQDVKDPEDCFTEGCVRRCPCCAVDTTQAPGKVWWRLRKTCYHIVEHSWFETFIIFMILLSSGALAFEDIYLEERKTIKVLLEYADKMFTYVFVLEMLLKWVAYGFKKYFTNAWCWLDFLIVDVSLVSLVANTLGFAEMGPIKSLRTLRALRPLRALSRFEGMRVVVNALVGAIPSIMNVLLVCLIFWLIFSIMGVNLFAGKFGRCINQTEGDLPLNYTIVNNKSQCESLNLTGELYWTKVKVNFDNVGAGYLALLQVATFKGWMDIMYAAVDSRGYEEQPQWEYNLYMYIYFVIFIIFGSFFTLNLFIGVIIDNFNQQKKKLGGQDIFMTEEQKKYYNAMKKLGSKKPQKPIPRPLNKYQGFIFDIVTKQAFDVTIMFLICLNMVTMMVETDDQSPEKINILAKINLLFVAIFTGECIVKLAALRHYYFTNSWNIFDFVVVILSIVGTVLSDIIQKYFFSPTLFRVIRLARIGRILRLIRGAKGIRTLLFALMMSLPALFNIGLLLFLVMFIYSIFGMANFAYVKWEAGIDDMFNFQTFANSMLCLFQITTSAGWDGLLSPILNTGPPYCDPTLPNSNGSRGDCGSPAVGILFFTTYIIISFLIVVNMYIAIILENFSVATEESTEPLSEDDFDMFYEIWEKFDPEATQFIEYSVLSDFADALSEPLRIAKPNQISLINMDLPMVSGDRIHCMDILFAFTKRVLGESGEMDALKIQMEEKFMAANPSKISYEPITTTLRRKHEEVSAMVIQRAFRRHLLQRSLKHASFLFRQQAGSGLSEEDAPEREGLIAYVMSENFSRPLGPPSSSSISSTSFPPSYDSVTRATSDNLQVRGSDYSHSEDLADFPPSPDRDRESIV

What does the source list for `CCc1nn(CCCN2CCN(c3cccc(Cl)c3)CC2)c(=O)n1CCOc1ccccc1` [nefazodone]?
Effect on Vmax [1]: significantly decreased; Block of INa, sensitivity [2]: greater sensitivity than in HEK293 cells
